Results: the METLIN SMRT retention time set (Domingo-Almenara et al. 2019)

Assay: gradient 5% acetonitrile 3 min, to 50% in 2 min, to 85% in 15 min, held 3 min, 100 µL/min
Details: column: Zorbax Extend-C18 2.1 x 50 mm; eluents: water / acetonitrile, 0.1% formic acid
Procedure, shortened: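 Retention times of pure standards were taken from adduct peaks that were selected by computer and manually inspected. Over 3 months, mixtures of ~100 molecules were run by HPLC–quadrupole time-of-flight mass spectrometry in positive and negative ionization mode. The Zorbax Extend-C18 column (2.1 × 50 mm, 1.8 μm) ran at 100 μL/min in water and acetonitrile, each containing 0.1% formic acid, with 40 μL dead volume and 900 μL dwell volume.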

`Cc1ccc(N2CCN(C(=O)c3cn4cccc(C)c4n3)CC2)cc1` showed an RP-LC retention time of 682 s.
`CC1Oc2ccccc2N(Cc2nc(-c3ccc(Cl)c(F)c3)no2)C1=O` (stereo not given) gave an RP-LC retention time of 1190 s.
`Cc1ccc2nc(N3CCN(Cc4ccccc4)CC3)c(-c3noc(C)n3)cc2c1` gave an RP-LC retention time of 686 s.
`CN1CCN(C(=O)c2csc(N3CCN(c4ccc(F)cc4)CC3)n2)CC1` gave an RP-LC retention time of 643 s.
`Clc1ccc(-c2nc(NCc3cccs3)c3ccccc3n2)cc1` gave an RP-LC retention time of 842 s.
Compound `COc1cccc(/C=C/c2nc(C#N)c(NCCCN(C)C)o2)c1` has an RP-LC retention time of 651 s.
For `COCC(=O)N1CCCc2ccc(NC(=O)c3cc(C)oc3C)cc21`, the RP-LC retention time was 725 s.
`O=C(CSc1nnc(N2CCN(C(=O)c3cccs3)CC2)s1)NCc1ccco1` gave an RP-LC retention time of 642 s.
`Cc1nc2cc(-c3noc(Cc4cccc(Cl)c4)n3)ccc2o1` gave an RP-LC retention time of 1070 s.
Work on `CC(C)Cc1cc(-c2nn3c(-c4ccc(Br)cc4)nnc3s2)n[nH]1` yielded an RP-LC retention time of 1150 s.
With `CC1(C(=O)NC2CCCCCC2)Cn2c(cc3occc32)C(=O)N1Cc1cccnc1` (stereo not given) the RP-LC retention time was 661 s.
Compound `CCCNC(=O)C1CCN(c2ccc(SCC(=O)Nc3ccc(C(=O)OC)cc3)nn2)CC1` has an RP-LC retention time of 638 s.
For `Cn1ccc2cc(S(=O)(=O)N3CCCC(C(=O)NC4CCCCCCC4)C3)ccc21` (stereo not given), the RP-LC retention time was 1080 s.
`COc1c(C(=O)NC(C)(C)C)sc2ccc(F)cc12` gave an RP-LC retention time of 1080 s.
In the case of `Cc1[nH]c(=O)[nH]c(=O)c1S(=O)(=O)N1CCCC1`, the RP-LC retention time was 583 s.
With `COc1ccccc1N1CCN(CCN2C(=O)N=C3C(=Nc4ccccc43)C2=O)CC1` the RP-LC retention time was 705 s.
Work on `Cc1ccc(NC(=O)CN2CCc3ccccc3C2C(=O)N2CCCCC2)cc1C` (stereo not given) yielded an RP-LC retention time of 900 s.
For `COc1cccc(C(=O)N2CCc3nc(CNC(=O)C4CCC4)n(C)c3C2)c1`, the RP-LC retention time was 555 s.
With `Cc1ccc(-c2nc3ncccn3c2NCc2ccccc2)cc1` the RP-LC retention time was 729 s.
Compound `Cc1ccc(CNC(=O)c2cc3sccc3n2Cc2ccc(F)cc2)cc1` has an RP-LC retention time of 888 s.
`COc1cccc(CNC(=O)CCC2CCN(c3cc(NC4CC4)ncn3)CC2)c1` gave an RP-LC retention time of 575 s.
`Cc1ccc(-c2cc3c4nnc(CCC(=O)NC5CCCCCC5)n4ccn3n2)cc1C` gave an RP-LC retention time of 587 s.
Compound `CC(NC(=O)Cn1nc(Cc2cccnc2)c2ccccc2c1=O)c1ccc2c(c1)OCCO2` (stereo not given) has an RP-LC retention time of 632 s.
With `COc1cc(Cl)ccc1-c1nc(-c2ccc3c(c2)oc(=O)n3C(C)C)no1` the RP-LC retention time was 1220 s.
With `COc1cc2c(cc1OC)C(C(=O)NCc1ccc(C)o1)C1c3ccccc3CCN1C2=O` (stereo not given) the RP-LC retention time was 946 s.
With `N#Cc1cnc2ccc(F)cc2c1N1CCC(C(=O)Nc2ccc(F)cc2)CC1` the RP-LC retention time was 885 s.
`O=C(Cc1csc2nc(-c3ccccc3)cn12)Nc1ccccc1` gave an RP-LC retention time of 785 s.
With `CCN1C(=O)C2(CCN(S(=O)(=O)c3ccc(C)c(Cl)c3)CC2)c2ccccc21` the RP-LC retention time was 1170 s.
With `COc1cccc(-n2cc(C(=O)OCc3ccncc3)c3ccccc3c2=O)c1` the RP-LC retention time was 714 s.
`O=C(NCc1cccs1)c1nc(N2CCOCC2)c2ccccc2n1` showed an RP-LC retention time of 641 s.
Work on `COc1ccc(-c2cn3c(CC(=O)N4CCN(C5CCCCC5)CC4)csc3n2)cc1OC` yielded an RP-LC retention time of 594 s.
With `COC(=O)Nc1ccc(S(=O)(=O)Nc2nc(C)cc(C)n2)cc1` the RP-LC retention time was 599 s.
`CCCCN(C)C(=O)C1CCN(S(=O)(=O)c2ccc3c(c2)sc(=O)n3C)CC1` gave an RP-LC retention time of 822 s.
With `Cc1nc(COc2ccccc2)sc1C(=O)NCCN(C)C` the RP-LC retention time was 611 s.
For `O=C(CN1C(=O)C(C(=O)N2CCCCC2)Sc2ccccc21)N1CCN(c2ccccc2)CC1` (stereo not given), the RP-LC retention time was 907 s.
With `Cc1cccc(CSc2nnc3c(S(=O)(=O)N4CCCC4)cccn23)c1` the RP-LC retention time was 883 s.
Compound `Cc1nn(-c2ccc(Cl)cc2)c2sc(C(=O)O)cc12` has an RP-LC retention time of 1010 s.
Work on `COc1ccc(-c2noc(Cn3ccnc3)n2)cc1` yielded an RP-LC retention time of 601 s.
In the case of `Cc1nnc(-c2coc(S(=O)(=O)N3CCN(CC(C)C)CC3)c2)o1`, the RP-LC retention time was 587 s.
Work on `CCN(CC)CCCNC(=O)C(C)n1nc(C)c2c(C)n(-c3ccccc3)nc2c1=O` (stereo not given) yielded an RP-LC retention time of 621 s.
For `COC(=O)c1ncn2c1C(=O)N(c1ccc(C(C)C)cc1)C(C)(C(=O)NC1CCCC1)C2` (stereo not given), the RP-LC retention time was 817 s.
Compound `CC1CCCN(CCCNC(=O)CCCn2c(=O)c3cccn3c3ccc(F)cc32)C1` (stereo not given) has an RP-LC retention time of 650 s.
`Cn1ccc2c(cc(C(=O)NCc3cccc(Cl)c3)n2C)c1=O` showed an RP-LC retention time of 724 s.
Compound `O=C(c1ccccc1Br)N1CCN(c2cc(-c3ccc(F)cc3)[nH]n2)CC1` has an RP-LC retention time of 824 s.
In the case of `CCc1ccc(OCC(=O)N(Cc2ccc(OC)cc2)C2CCS(=O)(=O)C2)cc1` (stereo not given), the RP-LC retention time was 989 s.
